The subject of experiment [1] is Acenobacter baumannii ATCC BAA-1798. The experiment is classed as cell-based, A. baumannii. From the text: (§1) Chemically synthesized PM15, PM15Y and PM15A peptides were obtained from GLBiochem^TM (Shanghai, China). Molecular weight of the peptides was confirmed by mass spectrometry. Bacterial strains were obtained from the American Type Culture Collection (ATCC, Manassas, VA, USA). Mueller–Hinton (MH) broth was purchased from Sigma-Aldrich^TM (Saint Louis, MO, USA) and Millipore-Sigma^TM (Saint Louis, MO, USA). 1-N-phenylnaphthylamine (NPN) and LPS (E. coli O111:B4) were purchased from Sigma Aldrich^TM.
Bacterial growth inhibition of PM15, PM15A and PM15Y peptides was estimated against a panel of bacterial strains, namely, E. coli ATCC25922, S. enterica ATCC 14028, K. pneumoniae ATCC 13883, A. baumannii ATCC BAA-1798, S. pyogenes ATCC 19615 and E. faecalis ATCC 29212, by using the broth dilution assay determining minimum inhibitory concentration (MIC). Typically, overnight bacterial cultures were grown to mid-log phase at 37 °C and then diluted in Mueller–Hinton (MH) broth to OD600 ~ 0.002. […] Bacterial inhibition was determined by absorbance of 96-well plates at OD600 nm by using a Cytation spectrophotometer (Agilent, Santa Clara, CA, USA). The minimum peptide concentration showing complete inhibition of bacterial growth was determined as the MIC value.

For the next experiment, the system named is E. coli cells. Briefly: Zeta potential of E. coli cells (surface charge neutralization). The settings on record: 10 mM sodium phosphate buffer, pH 7; peptide 2-32 μM; three replicates of 100 runs; Figure 1A. The experiment is classed as cell-based. The procedure:
All zeta potential measurements were performed on a Zeta Sizer Nano ZS (Malvern Instruments, Worcestershire, UK) equipped with a 633 nm He laser using zeta cells with gold electrodes. Typically, E. coli cells at a mid-log culture in LB media were harvested by centrifugation at 5000 rpm for 10 min and resuspended in 10 mM sodium phosphate buffer, pH 7. Zeta potential value of the bacterial cell suspension was determined for the free cells and with subsequent additions of peptide (2 μM to 32 μM). For each concentration, 100 runs were carried out and three replicates were executed.

Experiment [2] can be described thus: ITC of peptide/LPS binding. Set-up: species or system E. coli. The settings on record: 10 mM sodium phosphate, pH 7.0, 37 °C.
Excerpt: as §1
(§2) ITC experiments were conducted by using a MicroCal ITC 200 calorimeter. Samples, LPS and peptides, were prepared in 10 mM sodium phosphate buffer, pH 7.0. LPS (50 µM) was placed in the sample cell, while the syringe contained 1 mM of peptide. In an individual experiment, 2.0 μL of peptide was titrated, with a total of 20 titrations, into the sample cell containing LPS at 37 °C with stirring speed adjusted to 750 rpm. For ITCs of peptides/LptAm, samples were prepared in 50 mM sodium phosphate buffer, 150 mM NaCl, pH 7.0. 25 μM of LptAm was loaded into the sample cell, whereas 250 μM of PM15 and PM15Y was placed in the syringe. ITC titrations were performed with 20 injections of 2 µL of peptide into sample cells at 25 °C with a stirring speed of 750 rpm. ITC data were analyzed by using a single site binding model in MicroCal Origin 5.0 software to obtain the association constant (Ka) and enthalpy change (ΔH). Other binding parameters, namely, dissociation constant (Kd), Gibbs free energy (ΔG) and entropy change (TΔS), were determined indirectly from thermodynamics equations.

The target in a further experiment is T1, LptAm protein of E. coli (Escherichia coli, UniProt P0ADV1).
T1 construct: Expression and purification of LptAm protein (residues 28–159), with a six His-tag (SGRVEHHHHHH) at the C-terminus; made in house; host or cells: E. coli BL21
Briefly: ITC of peptide/LptAm binding. The following applies: 50 mM sodium phosphate, 150 mM NaCl, pH 7.0, 25 °C. On the procedure: as §2
Expression and purification of LptAm protein (residues 28–159), with a six His-tag (SGRVEHHHHHH) at the C-terminus, was carried out by using a previously established method. Briefly, plasmid DNA coding for LptAm gene was transformed into E. coli BL21 competent cells in LB agar plates containing 100 µg/mL of ampicillin. Protein production from expressing E. coli was induced by 1 mM isopropyl β-d-1-thiogalactopyranoside (IPTG) at an OD600 value of 0.6–0.8 at 18 °C for 18 h. The bacteria cells were centrifuged at 6000 rpm, 4 °C for 15 min and resuspended in a lysis buffer (100 mM HEPES, 500 mM NaCl, 10 mM imidazole, pH 8). Bacterial cells were lysed by sonication on ice at 25 Amp for 1 h, the lysate was centrifuged at 18,000 rpm, 4 °C for 30 min to remove cellular debris. The cell supernatant was applied through Ni-NTA (Qiagen, Germantown, TN, USA) beads thrice before washing it with increasing concentrations of imidazole. […]

For the next experiment, the system named is bacteria. The settings on record: cited from earlier work; for antibacterial activity, in words: N-terminal deletion fragment of thanatin. An excerpt: Antimicrobial peptides (AMPs) are found in all life forms and constitute the first line of defense as a part of innate immunity in higher organisms, including humans. As a mode of action, a significant number of cationic AMPs disrupt membrane structures including the LPS–outer membrane of Gram-negative bacteria. Thanatin, a 21-residue antimicrobial peptide, was originally identified from the hemolymph of the spined soldier bug, or Podisus maculiventris. […] Further, to understand residue length-dependent antibacterial activity, here, we investigated a 15-residue N-terminal peptide fragment, or PM15 (PIIYCNRRTGKCQRM), of thanatin. We also examined two analog peptides, PM15Y and PM15A, to replace residue Pro. […] In this study, we have examined 15-residue thanatin-derived peptide, or PM15, and two analogs, PM15Y and PM15A. PM15 and analog peptides are able to exert antibacterial activity against Gram-negative and Gram ...

The subject of experiment [3] is LPS-outer membrane; LptA and LptD. The following applies: cited from earlier work. From the text: (§3) Antimicrobial peptides (AMPs) are found in all life forms and constitute the first line of defense as a part of innate immunity in higher organisms, including humans. As a mode of action, a significant number of cationic AMPs disrupt membrane structures including the LPS–outer membrane of Gram-negative bacteria. Thanatin, a 21-residue antimicrobial peptide, was originally identified from the hemolymph of the spined soldier bug, or Podisus maculiventris. Recent studies have discovered and characterized thanatin orthologous AMPs from other speci ...

The test system of experiment [4] is bacterial load from model animals. The settings on record: ref [29],[30],[31]; cited from earlier work.
Excerpt: as §3

In experiment [5] the target is T2, LptAm, a monomeric functional (truncated) variant of LptA (E. coli, UniProt P0ADV1 28-159).
T2 construct: LptA, periplasmic component of the LPS transport (Lpt) complex, E. coli, residues 28-159; no removal of the His tag is described; source: E. coli BL21, purified (Ni-NTA, size-exclusion chromatography)
T2 sequence (looked up): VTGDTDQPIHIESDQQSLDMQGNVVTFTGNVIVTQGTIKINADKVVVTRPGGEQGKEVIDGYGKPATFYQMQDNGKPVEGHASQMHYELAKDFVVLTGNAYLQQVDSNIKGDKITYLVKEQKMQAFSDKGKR
Briefly: ITC; 250 uM peptide in the syringe titrated into 25 uM LptAm in the cell; 50 mM sodium phosphate, 150 mM NaCl, pH 7.0, 25 °C; single site binding model; apparent Kd. The settings on record: both partners purified.

[6] abbreviates: 1 mM peptide into 50 μM E. coli LPS (O111:B4), single site binding model.
The mark [7] stands for this setting: LPS, determined indirectly from thermodynamics equations.

Read-outs that look alike come from different tables or passages of the source. Bridge positions count the residues as written; N and C are the ends. Ends that are not written are not given here. Some results are limits rather than exact numbers.

Regarding `CC[C@H](C)[C@H](NC(=O)[C@@H]1CCCN1)C(=O)N[C@H](C(=O)N[C@@H](Cc1ccc(O)cc1)C(=O)N[C@H]1CSSC[C@@H](C(=O)N[C@@H](CCC(N)=O)C(=O)N[C@@H](CCCNC(=N)N)C(=O)N[C@@H](CCSC)C(=O)O)NC(=O)[C@H](CCCCN)NC(=O)CNC(=O)[C@H]([C@@H](C)O)NC(=O)[C@H](CCCNC(=N)N)NC(=O)[C@H](CCCNC(=N)N)NC(=O)[C@H](CC(N)=O)NC1=O)[C@@H](C)CC` [PM15], the MIC in experiment [1] is given as >16 (>16) µM. In the experiment with E. coli cells, the “change in zeta potential of E. coli cells, in words” value was “increase in zeta potential in a dose-dependent manner”. In experiment [2] (setting [6]), this molecule had a Kd of 570 nM and a ΔH of -7.33 kcal/mol. In experiment [2] (setting [7]), this molecule came in with a TΔS of 1.54 kcal/mol and a ΔG of -8.87 kcal/mol. The molecule further gave a ΔH at LptAm protein of E. coli (250 μM peptide into 25 μM LptAm, single site binding model) of -2.93 kcal/mol. In addition, the “LptAm binding, in words” value at LptAm protein of E. coli was “bind to LptAm with high affinity”. On LptAm protein of E. coli (LptAm, determined indirectly from thermodynamics equations), this molecule registered a TΔS of 6.23 kcal/mol.
With “VPIIYCNRRTGKCQRM [16-residue fragment, 16-residue fragment (…) of thanatin]”, the “antibacterial activity, in words” value with bacteria (ref [23],[26],[31],[36]) is “potent antibacterial activity”; in the experiment on bacteria (ref [23],[31],[36]), “demonstrated antibacterial activity”.
Consider “thanatin: 21-residue antimicrobial peptide from the hemolymph of the spined soldier bug, Podisus maculiventris”, for which the “killing of Gram-negative bacteria, in words” value in the experiment with bacteria (Enterobacteriaceae, including drug-resistant strains, ref [26],[28],[30],[31]) was “extremely potent in selectively killing Gram-negative bacteria”. The “antimicrobial activity, in words” value with bacteria (Gram-negative and Gram-positive bacteria and several strains of fungi, ref [23],[26],[27],[28],[29],[30]) is recorded as “broad spectrum of antimicrobial activity”. In addition, the “inhibition of outer-membrane biogenesis, in words” value in experiment [3] (LptA and LptD, LPS transport, ref [33],[34],[35]) is “inhibits outer-membrane biogenesis by disrupting protein complexes (LptA and LptD)”. The “interaction with LPS-outer membrane, in words” value in experiment [3] (ref [27],[28],[32]) is “interacted with the LPS–outer membrane, facilitating the permeabilizing of the OM barrier”. Besides, the “clearing bacterial load, in words” value in experiment [4] is given as “promising activity profile”.
As for “IIYCNRRTGKCQRM [14-residue (IIYCNRRTGKCQRM) fragment, 14-residue (…) fragment of thanatin]”, the “antibacterial activity, in words” value in the experiment on bacteria (ref [23],[36]) is “largely inactive”; in the experiment on bacteria (ref [23],[36], listed as 14-residue thanatin), “inactive peptide”.

B1: PM15, 15-residue N-terminal truncated analog of thanatin (peptide)
peptide: PIIYCNRRTGKCQRM
notes: thanatin, Podisus maculiventris (spined soldier bug), the C-terminal 15 residues of the 21-residue peptide (P7-M21 of thanatin); also called 15-residue thanatin peptide; source: synthetic peptide, bought: GLBiochem (Shanghai, China)
Turning to B1, in experiment [5], the Kd amounted to 600 nM and the dH is -2.93 kcal/mol.
For YIIYCNRRTGKCQRM (disulfide 5-12) [PM15Y, P1 to Y substituted variant of PM15], the dH in experiment [5] was -11.8 kcal/mol.

The values are drawn from paper PMC10812785, “Structures, Interactions and Activity of the N-Terminal Truncated Variants of Antimicrobial Peptide Thanatin” (Antibiotics, 2024).
